Reference: ChEMBL document CHEMBL4422617, “Recent advances in the discovery of small molecules targeting glioblastoma” (Eur J Med Chem, 2019)
Values after ≈ are worked out from the molar mass of the structure shown.

Assays:
SF-295 [1] = test: Cytotoxicity against human SF295 cells after 72 hrs by MTT assay; type: functional, cell-based; conditions: SF-295, 72 h
PBMC = test: Cytotoxicity against human PBMC after 72 hrs by MTT assay; type: cell-based
C6 = test: Antiproliferative activity against rat C6 cells at 50 uM after 24 hrs by MTT assay relative to control; type: functional
U-87 MG [2] = test: Antiproliferative activity against human U87MG cells after 96 hrs; type: functional, U-87MG ATCC
U-87 MG [3] = test: Antitumor activity against human U87MG cells xenografted in nude-Fox1nu mouse assessed as tumor growth inhibition at 150 mg/kg bid relative to control; type: functional, U-87MG ATCC; conditions: read-out: TGI
U-251 [4] = test: Antitumor activity against human U251 cells xenografted in CAnN. Cg-Foxn1nu/CrlCrlj nude mouse assessed as tumor growth inhibition at 240 mg/kg, ip dosed 5 times a week for 39 days relative to control; type: functional; conditions: U-251, ip, 936 h, read-out: TGI
U-251 [5] = test: Antitumor activity against human U251 cells xenografted in CAnN. Cg-Foxn1nu/CrlCrlj nude mouse assessed as inhibition of tumor weight at 240 mg/kg, ip dosed 5 times a week for 39 days relative to control; type: functional; conditions: U-251, ip, 936 h
U-251 [6] = test: Antiproliferative activity against human U251 cells after 6 days by cell counting analysis; type: functional; conditions: U-251, 144 h
SF-268 = test: Antiproliferative activity against human SF268 cells after 6 days by cell counting analysis; type: functional; conditions: SF-268, 144 h
SF-295 [7] = test: Antiproliferative activity against human SF295 cells after 6 days by cell counting analysis; type: functional; conditions: SF-295, 144 h
SF-539 = test: Antiproliferative activity against human SF539 cells after 6 days by cell counting analysis; type: functional; conditions: SF-539, 144 h
SNB-75 = test: Antiproliferative activity against human SNB75 cells after 6 days by cell counting analysis; type: functional; conditions: SNB-75, 144 h
SNB-78 = test: Antiproliferative activity against human SNB78 cells after 6 days by cell counting analysis; type: functional; conditions: SNB-78, 144 h
U-251 [8] = test: Antiproliferative activity against human U251 cells after 72 hrs by WST-1 assay; type: functional, cell-based; conditions: U-251, 72 h
A 172 = test: Antiproliferative activity against human A172 cells after 72 hrs by WST-1 assay; type: functional, cell-based; conditions: A 172, 72 h
U-87 MG [9] = test: Antiproliferative activity against human U87 cells after 72 hrs by WST-1 assay; type: functional, cell-based, U-87MG ATCC
[10] = Antiproliferative activity against human BT74 cells after 72 hrs by WST-1 assay; type: functional, cell-based
[11] = Antiproliferative activity against human MGG4 cells after 72 hrs by WST-1 assay; type: functional, cell-based
[12] = Antiproliferative activity against human MGG8 cells after 72 hrs by WST-1 assay; type: functional, cell-based
U-87 MG [13] = test: Antiproliferative activity against human U87 cells; type: functional, cell-based, U-87MG ATCC
[14] = Cytotoxicity against human GBM6 cells after 72 hrs by MTS assay; type: functional; conditions: GBM6, 72 h, read-out: ED50 (the source's name)
SNB-19 = test: Antiproliferative activity against human SNB19 cells after 72 hrs by WST-1 assay; type: functional, cell-based; conditions: SNB-19, 72 h
U-87 MG [15] = test: Antiproliferative activity against human U87MG cells after 72 hrs by MTT assay; type: functional, cell-based, U-87MG ATCC
U-251 [16] = test: Antiproliferative activity against human U251 cells after 24 hrs by MTT assay; type: functional, cell-based; conditions: U-251, 24 h
U-251 [17] = test: Antiproliferative activity against human U251MG cells after 120 hrs by SRB assay; type: functional, cell-based; conditions: U-251, 120 h
[18] = Antiproliferative activity against human U3046MG cells by CellTiter-Glo assay; type: functional, cell-based
[19] = Antiproliferative activity against human U3005MG cells by CellTiter-Glo assay; type: functional, cell-based
Histone deacetylase = test: Inhibition of mouse liver HDAC using Boc-Lys (Ac)-AMC as substrate preincubated for 5 mins followed by substrate addition and measured after 30 mins by fluorescence assay
U-251 [20] = test: Antiproliferative activity against human U251 cells after 24 hrs by SRB assay; type: functional, cell-based; conditions: U-251, 24 h
U-251 [21] = test: Antiproliferative activity against human U251 cells after 72 hrs by coulter counting analysis; type: functional, cell-based; conditions: U-251, 72 h
[22] = Antiproliferative activity against human DBTRG cells after 72 hrs by coulter counting analysis; type: functional, cell-based
U-87 MG [23] = test: Antiproliferative activity against human U87MG cells after 72 hrs by coulter counting analysis; type: functional, cell-based, U-87MG ATCC
[24] = Antiproliferative activity against human D456 cells after 7 days […] by CellTiter Glo assay; type: functional, cell-based; conditions: 168 h
U-87 MG [25] = test: Antiproliferative activity against human U87 cells after 48 hrs by MTT assay; type: functional, U-87MG ATCC
U-251 [26] = test: Antiproliferative activity against human U251 cells by MTT assay; type: functional, cell-based

O=C(O)CNC1=CC(=O)c2ccccc2C1=O
IC50 (SF-295 [1]): 2.4 µM | IC50 (PBMC): 23.8 µM

Brc1c(Br)c(Br)c2[nH]cnc2c1Br
Activity (C6): 50%

CS(=O)(=O)N1CCN(Cc2cc3nc(-c4cccc5[nH]ncc45)nc(N4CCOCC4)c3s2)CC1 [PICTILISIB]
GI50 (U-87 MG [2]): 0.07 µM | inhibition in vivo at 150 mg/kg (U-87 MG [3]): 98%

Cc1oc2nc1-c1nc(co1)C(=O)N[C@@H](Cc1ccc(O)cc1)c1nc(c(C)o1)-c1nc(c(C)o1)-c1nc(co1)C(=O)N[C@@H](Cc1ccc(O)cc1)c1nc-2c(C)o1
inhibition in vivo at 240 mg/kg (U-251 [4]): 33% | inhibition in vivo at 240 mg/kg (U-251 [5]): 61% | GI50 (U-251 [6]): 0.021 to 0.18 µM | GI50 (SF-268): 0.021 to 0.18 µM | GI50 (SF-295 [7]): 0.021 to 0.18 µM | GI50 (SF-539): 0.021 to 0.18 µM | GI50 (SNB-75): 0.021 to 0.18 µM | GI50 (SNB-78): 0.021 to 0.18 µM

CCn1c(C)c(C(=O)c2ccc(C)c3ccccc23)c2ccccc21
EC50 (U-251 [8]): 2400 to 8600 µM | EC50 (A 172): 2400 to 8600 µM | EC50 (U-87 MG [9]): 2400 to 8600 µM | EC50 [10]: 2400 to 8600 µM | EC50 [11]: 2400 to 8600 µM | EC50 [12]: 2400 to 8600 µM

NS(=O)(=O)c1cccc2c1C(=O)c1cccc(O)c1C2=O
IC50 (U-87 MG [13]): 0.21 µM

CN1CCN(C(=O)c2ccc3c(NC4CCN(Cc5ccccc5)CC4)c4ccccc4nc3c2)CC1
EC50 [14]: 4.1 µM

O=C1C=C(N[C@@H](Cc2ccccc2)C(=O)O)C(=O)c2ccccc21
IC50 (SF-295 [1]): 2 µM | IC50 (PBMC): 37.9 µM

Cn1cnc2nc(Cl)nc(SCC#CCN3CCCC3)c21
EC50 (SNB-19): 5 µg/mL (≈ 15.5 µM)

O=C1C=C(O)C(=O)C(CC2CCC3CCCCC3C2)=C1O (configuration not stated)
IC50 (U-87 MG [15]): 23.6 µM

Cc1ccc(-c2nnc(SCC(=O)N3N=C(c4cccs4)CC3c3ccc(Cl)cc3)o2)cc1 (configuration not stated)
IC50 (U-251 [16]): 11.9 µM

CN(C)CCN1C(=O)c2cc(NCCc3ccc(O)c(CN(C)C)c3)c3c4c(cc(NCCc5ccc(O)c(CN(C)C)c5)c(c24)C1=O)C(=O)N(CCN(C)C)C3=O
IC50 (U-251 [17]): 0.033 µM

CN1CCN(CCCN2c3ccccc3Sc3ccc(C(F)(F)F)cc32)CC1 [TRIFLUOPERAZINE]
EC50 [18]: 1.34 µM | EC50 [19]: 1.85 µM

COc1ccc2c(c1)c(=O)c(C(=O)Nc1nc3ccccc3s1)cn2CCCCCC(=O)NO
IC50 (Histone deacetylase): 0.028 µM | IC50 (U-251 [20]): 0.8 µM

Nc1c(-c2cccnc2)ncc2c1C(=O)c1c(-c3ccccn3)nn(-c3ccc(F)cc3F)c1C2=O
IC50 (U-251 [21]): 2.5 µM | IC50 [22]: 2.5 µM | IC50 (U-87 MG [23]): 2.5 µM

O=C1CC(c2ccc(-c3cc[nH]n3)s2)c2cc(N3CCNC3=O)ccc2N1 (configuration not stated)
IC50 [24]: 1.69 µM

Cc1nc(=O)c2c(-c3ccccc3)c(C(=O)c3ccccc3)[nH]c2[nH]1
GI50 (U-87 MG [25]): 0.077 µM

O[C@@H](c1cc(C(F)(F)F)nc2c(C(F)(F)F)cccc12)[C@H]1CCCCN1 [(S,R)-MEFLOQUINE]
IC50 (U-251 [26]): 10 µM
